Results as given in patent US20090233958A1, “(+)-BELOXEPIN AND METHODS FOR ITS SYNTHESIS AND USE” (priority 2008, published 2009).
Read-outs that look alike come from different tables or passages of the source.

Legend:
L5 SNL rats = assay: L5-Single Nerve Ligation model of neuropathic pain, tactile allodynia (von Frey); format: in vivo, rat; conditions: for antiallodynic effect: 8 days post surgery, 30 min post treatment, FIG. 1; for antiallodynic effect over time: tested 30, 60, 120, 240 min
Protocol: Protocol. The antiallodynic activity of (+)- and (−)-beloxepin were tested in vivo using the L5-Single Nerve Ligation model of non-nociceptive neuropathic pain as described in LaBuda & Little, 2005, J. Neurosci. Methods 144:175-181. The test animals were placed in a Plexiglas chamber (10 cm×20 cm×25 cm) and habituated for 15 minutes. The chamber was positioned on top of a mesh screen so that von Frey monofilaments could be presented to the plantar surface of both hindpaws. Measurement of tactile sensitivity for each hind paw were obtained using the up/down method (Dixon, 1980, Annu. Rev. Pharmacol. Toxicol. 20:441-462) with seven Frey monofilaments (0.4, 1, 2, 4, 6, 8 and 15 grams). Each trial started with a von Frey force of 2 grams delivered to the right hind paw for approximately 1-2 seconds and then the left hind paw. If there was no withdrawal response, the next higher force was delivered. If there was a response, the next lower force was delivered. This procedure was performed until no response was made at the highest force (15 grams) or until four stimuli were administered following the initial response. The 50% paw withdrawal threshold for each paw was calculated using the following formula: [Xth]log=[vFr]log+ky, where [vFr] is the force of the last von Frey used, k=0.2249 which is the average interval (in log units) between the von Frey monofilaments, and y is a value that depends upon the pattern of withdrawal responses (Dixon, 1980, supra). […] Testing for tactile sensitivity was performed twice and the mean 50% withdrawal value assigned as the tactile sensitivity for the right and left paws for each animal.
Results. The antiallodynic effects produced by (+)-beloxepin (30 mg/kg IP) and (−)-beloxepin (30 mg·kg IP) in L5 SNL rats 8 days post surgery are illustrated in FIG. 1. In this experiment, at 8 days post surgery, rats were treated with vehicle or beloxepin enantiomers (30 mg/kg IP) and tested for tactile allodynia at 30 min post treatment. […] No side effects were observed following treatment with either enantiomer.
The antiallodynic effects produced by (+)-beloxepin (30 mg/kg IP) in L5 SNL rats 14 days post surgery are illustrated in FIG. 2. In this experiment, at 14 days post surgery, rats were treated with vehicle or (+)-beloxepin and tested for tactile allodynia at 30, 60, 120 and 240 min post treatment. Vehicle treated rats were tested at 30 min post treatment.
Protocol. A time course experiment was performed with (−)-beloxepin (60 mg/kg PO) in L5 SNL rats at 7 days post-surgery. Rats were tested at 30, 60, 120, and 240 minutes post-drug.
Protocol. A time course experiment was also performed with (+)-beloxepin (60 mg/kg PO) in L5 SNL rats at 14 days post-surgery. Rats were tested at 30, 60, 120, and 240 minutes post-drug.

[1] = system: rat hindpaw incision model; assay: Rat hindpaw incision model of post-operative pain, tactile allodynia; format: in vivo; conditions: 30 mg/kg IP, 24 hours post-surgery, tested 30, 60, 120, 240 min
Protocol: Protocol. A time course experiment was also performed with (−)-beloxepin in the hindpaw incision model. At 24 hours post-surgery, rats received vehicle or (−)-beloxepin (30 mg/kg IP). Rats were tested for tactile allodynia at 30, 60, 120 and 240 minutes after administration of (−)-beloxepin.
Protocol. Another time course experiment was performed with (+)-beloxepin in the hindpaw incision model. At 24 hours post-surgery, rats received vehicle or (+)-beloxepin (30 mg/kg IP). Rats were tested for tactile allodynia at 30, 60, 120 and 240 minutes after administration of (+)-beloxepin.

[2] = system: rat 50° C. hot plate model; assay: Rat 50° C. hot plate assay; format: in vivo; conditions: for antinociceptive activity: 30 mg/kg IP, 30, 60 and 120 minutes after treatment
Protocol: Protocol. Rats were treated with vehicle, 30 mg/kg IP of (−)-beloxepin, or 30 mg/kg IP of (+)-beloxepin and then were placed on a hot plate (50° C.) 30, 60, or 120 minutes after administration of the vehicle or beloxepin enantiomer. Rats treated with 3 mg/kg SC of morphine and tested 30 min post-treatment were used as a positive control in these experiments.

NET = molecular target: T1, NET (Rattus norvegicus, UniProt Q63380); assay: NE uptake inhibition assay, rat hypothalamus synaptosomes; format: biochemical; conditions: read-out: NET IC50 (norepinephrine reuptake inhibition)
T1 construct: from tissue; host or cells: rat hypothalamus synaptosomes

[3] = system: noradrenergic, histaminergic and cholinergic receptors; conditions: Sperling & Demling 1997; cited from earlier work
5HT2C receptor = molecular target: T2, 5HT2C receptor (Homo sapiens, UniProt P28335); conditions: Claghorn & Lesem 1996; cited from earlier work
T2 sequence (P28335 33-458): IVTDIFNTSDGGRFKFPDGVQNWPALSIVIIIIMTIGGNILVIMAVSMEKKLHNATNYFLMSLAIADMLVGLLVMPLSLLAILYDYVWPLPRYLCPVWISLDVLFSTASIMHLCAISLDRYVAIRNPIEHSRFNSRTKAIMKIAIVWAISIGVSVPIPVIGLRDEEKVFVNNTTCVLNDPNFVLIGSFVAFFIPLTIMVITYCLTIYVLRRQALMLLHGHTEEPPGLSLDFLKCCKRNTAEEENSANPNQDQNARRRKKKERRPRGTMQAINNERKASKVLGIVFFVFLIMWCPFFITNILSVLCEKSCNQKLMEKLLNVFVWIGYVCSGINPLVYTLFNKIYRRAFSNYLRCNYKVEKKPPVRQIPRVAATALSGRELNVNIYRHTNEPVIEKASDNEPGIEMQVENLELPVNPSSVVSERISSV

[4] = system: animal models of depression; conditions: cited from earlier work
REM sleep = conditions: 25-400 mg, cited from earlier work
[5] = cited from earlier work
depression = conditions: based on HAMD score reduction; cited from earlier work
major depression = conditions: subsequent clinical trials; Paanakker et al. 1998; cited from earlier work

T1 sequence (Q63380 1-617): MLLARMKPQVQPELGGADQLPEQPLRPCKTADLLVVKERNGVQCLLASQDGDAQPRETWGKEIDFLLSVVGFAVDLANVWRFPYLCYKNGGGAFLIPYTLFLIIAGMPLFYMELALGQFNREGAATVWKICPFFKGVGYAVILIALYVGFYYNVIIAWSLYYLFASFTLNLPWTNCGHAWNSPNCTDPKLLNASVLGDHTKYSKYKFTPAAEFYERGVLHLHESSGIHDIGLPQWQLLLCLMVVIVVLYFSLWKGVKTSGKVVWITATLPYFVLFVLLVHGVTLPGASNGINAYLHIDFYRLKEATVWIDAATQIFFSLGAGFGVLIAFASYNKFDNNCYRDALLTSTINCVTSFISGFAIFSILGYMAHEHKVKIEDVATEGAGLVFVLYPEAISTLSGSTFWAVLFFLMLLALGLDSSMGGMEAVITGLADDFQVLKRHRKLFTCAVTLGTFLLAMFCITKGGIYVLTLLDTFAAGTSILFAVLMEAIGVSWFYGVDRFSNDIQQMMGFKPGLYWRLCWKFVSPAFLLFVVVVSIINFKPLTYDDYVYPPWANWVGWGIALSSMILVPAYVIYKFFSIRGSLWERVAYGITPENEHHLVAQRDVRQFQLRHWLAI

## Cc1cccc2c1Oc1ccccc1C1(O)CCN(C)CC21 (single isomer, unassigned; (+)) [(+)-beloxepin]
L5 SNL rats; 30 mg/kg IP
  antiallodynic effect: not statistically significant, (+)-beloxepin produced an antiallodynic effect that was comparable to that observed with (−)-beloxepin
L5 SNL rats; 30 mg/kg IP, 14 days post surgery
  maximal efficacy, % of the threshold of vehicle-treated rats: 423%
L5 SNL rats; 30 mg/kg IP, 14 days post surgery, FIG. 2
  antiallodynic effect over time: significant antiallodynic effects at the 30 and 60 min time points
L5 SNL rats; 60 mg/kg PO, 14 days post-surgery, FIG. 4
  antiallodynic effect over time: did not produce significant antiallodynic effects at any time point
[1]
  antiallodynic effect over time: significant antiallodynic effect at the 30 and 60 minute time points
[2]; 30 mg/kg IP, 30, 60, 120 min, FIG. 8
  antinociception, % MPE values: 10-17%
[2]
  antinociceptive activity: no antinociception was observed

## Cc1cccc2c1Oc1ccccc1C1(O)CCN(C)CC21 (racemic) [(±)-beloxepin, cis-1,2,3,4,4a,13b-hexahydro-2,10-dimethyldiben-[2,3:6,7]oxepino[4,5c]pyridine-4-a-ol]]
NET
  IC50: 130 nM
[3]
  affinity for noradrenergic, histaminergic and cholinergic receptors: no or very weak affinity
5HT2C receptor
  affinity for the 5HT2C receptor: modest affinity
[4]; acquired immobility, reserpine-induced hypothermia, conditioned avoidance
  antidepressant properties: exhibit antidepressant properties
[4]; preclinical depression tests
  sedation, motor impairment or other side effects: did not cause sedation, motor impairment or other untoward side effects
REM sleep; EEG
  total duration of nocturnal REM sleep: decreased
REM sleep; acutely and sub-chronically, EEG
  REM latency: dose-dependently prolonged REM latency
REM sleep; human volunteers
  sedation or other side effects: No sedation or other side effects were observed
[5]; healthy volunteers, up to 800 mg/day
  adverse effects: No important adverse effects were observed
[5]; steady-state, doses of 50 to 800 mg, healthy normal subjects
  tmax: 1.17 h
depression
  fraction of patients with moderate to good response: ⅔
Major depression
  efficacy for the treatment of major depression: insufficient efficacy

## Cc1cccc2c1Oc1ccccc1C1(O)CCN(C)CC21 (single isomer, unassigned; (-)) [(−)-beloxepin]
NET; [3H]norepinephrine, rat hypothalamus synaptosomes, 20 min 37° C.
  IC50: 120 nM
L5 SNL rats; 30 mg/kg IP
  antiallodynic effect: significant antiallodynia
L5 SNL rats; 60 mg/kg PO, 7 days post-surgery, FIG. 3
  antiallodynic effect over time: significant antiallodynic effects at the 60 and 120 minute time points
[1]
  antiallodynic effect over time: significant antiallodynic effect at the 30 and 120 minute time point
[2]
  antinociceptive activity: robust antinociceptive activity at 30, 60, and 120 minutes after treatment
